Measured values from US20090048229A1, “Methods for promoting wakefulness” (priority 2007, published 2009).

Tests used:
male Wistar rats = assay: Wake promotion (EEG/EMG sleep-wake, locomotor activity, body temperature); format: in vivo, rat; conditions: for duration of wakefulness: administered 5 hours after lights on (CT-5), FIG. 2; for rebound hypersomnolence: FIG. 3; for effect on body temperature: FIG. 4; for locomotor hyperactivity / stimulant activity: FIG. 5
Description: Test compounds in various dose ranges or vehicle were administered to male Wistar rats 5 hours after lights on (CT-5). EEG, EMG, locomotor activity, drink- and food-related activity, and body temperature were concurrently monitored for 30 hr before and after treatment from rats living in separate isolated recording chambers. Sleep-wake discriminations were carried out using SCORE2004™, proprietary real-time hardware and software technology of Hypnion, Inc. (Lexington, Mass.). Comparisons were made between the reference compounds: d-amphetamine, rivastigmine, modafinil, and the following carbamoyl ester test compounds: […]

AChE = AChE (Homo sapiens, UniProt P22303); format: biochemical
[1] = system: total cholinesterase activity in the brain; assay: Total cholinesterase activity in brain homogenate after i.p. injection; format: in vivo, rat; conditions: brain 3 hours after injection; for Relative ChE Activity: relative to saline treated rats
Description: Animals were decapitated 3 hours after injection and the brains rapidly removed. The brain tissue was diced into small pieces, placed on ice and immediately homogenized with a Polytron PT1200 (Kinematic AG) in 10 ml ice cold Tris with 0.1% Triton-X and protease inhibitors. The protease inhibitors in the extraction buffer were Antipain (10 μM), Aprotinin (5 TIU/mg protein), Bestatin ([…]), Leupeptin (10 μM) and Pepstatin (1 μM). The final dilution of the homogenate in the final assay mixture was 120-fold.
Total cholinesterase activity was determined by a modification of the colorimetric method of Ellmann, et al. (Biochem. Pharmacol., 7:88-95 (1961)), as described above. Hydrolysis of acetylthiocholine was monitored indirectly by measurement of the formation of the conjugate between thiocholine and DTNB. Optical density at 405 nm was recorded during five (5) minutes employing a microplate spectrophotometer (Polarstar, BMG Labtech), and plotted against time. The initial rates were calculated from the slope of the linear portion of the graph.
Cholinesterase activity was normalized for protein content of the homogenate. Relative cholinesterase activity was calculated as the ratio of normalized cholinesterase activity in a rat treated with a control compound or a carbamoyl ester over normalized cholinesterase activity in saline treated rats.

BuChE = BuChE (Homo sapiens, UniProt P06276); assay: In vitro screening assay, BuChE inhibition; format: biochemical
Description: An in vitro screening assay with various conjugates was completed according to the methods described in Ellman G L et al., Biochem Pharmacol., 7:88-95 (1961) and in Nadarajah B, J. Anal. Toxicol., 16:192-193 (1992), both of which are herein incorporated by reference in their entireties. The assay method was completed according to the following: […]

[2] = target: T1, human recombinant acetylcholinesterase (Homo sapiens, UniProt P22303); assay: biochemical; conditions: for IC50: 30 min preincubation, 25° C., read-out: Inhibition of AChE IC50; for inhibition at 10 µM: read-out: Inhibition of AChE (%) 10 μM
T1 construct: purchased Sigma Chemical Co (St. Louis, Mo.) C1682
Description: All reagents employed in this experiment were of analytical grade. Acetylthiocholine iodide and 5,5′-dithiobis-(2-nitro)benzoic acid (DTNB) and human recombinant acetylcholinesterase (C1682) were purchased from Sigma Chemical Co (St. Louis, Mo.).
The enzyme, compound or stigmine and buffer were preincubated for 30 minutes. At the end of the preincubation period, the substrate acetylthiocholine was added. The final assay mixture contained 10 mM Tris-buffer (pH 8), 0.3 mM Acetylthiocholine and 0.33 mM DTNB and 0.08 U/ml enzyme. At least five (5) different concentrations of the compound or stigmine were assayed per IC50 experiment.
Hydrolysis of acetylthiocholine was monitored indirectly by measurement of the formation of the conjugate between thiocholine and DTNB.

butylryl cholinesterase = butylryl cholinesterase (Homo sapiens, UniProt P06276); assay: Inhibition of butyrylcholinesterase; format: biochemical; conditions: read-out: Inhibition of BuChE (%) 10 μM
Description: The inhibition of butylryl cholinesterase was determined using methods known in the art e.g., Alcala Molel M. et al. (2003) Characterization of the anticholinesterase activity of two new tacrin-huperzine A hybrids. Neuropharmacology, 44 (6), 749-755.

[3] = system: male CD IGS (Sprague Dawley derived) rats; assay: Induction of hypothermia after subcutaneous administration; format: in vivo, rat; conditions: for Induction of hypothermia MED (mg/kg s.c.): hypothermia = fall in temperature of >0.5° C.; for fall in body temperature: subcutaneous administration
Description: Cholinergic agonists cause hypothermia through a central mechanism of action (Freedman et al, 1989. Direct measurement of muscarinic agents in the central nervous system of mice using ex vivo binding. Eur. J. Pharmacol. 174:253-260). […] Since a premise of the present invention is that carbomyl esters would liberate the conjugated amine in the CNS only after inhibition of acetylcholinesterase, induction of hypothermia provides a useful correlation with the acetylcholinesterase inhibition detected in vitro and in vivo.
Hypothermia was defined as a fall in temperature of >0.5° C.
Hypothermia is a marker of CNS penetration for ACHE inhibitors.
If less soluble, the maximum injection volume was 5 mL/kg.
Baseline temperatures were taken just before injection.

[4] = system: rats trained to discriminate methamphetamine from saline; assay: Two-lever drug discrimination in methamphetamine trained rats; conditions: 0.32-10 mg/kg p.o.

Sequence of AChE (P22303 32-614): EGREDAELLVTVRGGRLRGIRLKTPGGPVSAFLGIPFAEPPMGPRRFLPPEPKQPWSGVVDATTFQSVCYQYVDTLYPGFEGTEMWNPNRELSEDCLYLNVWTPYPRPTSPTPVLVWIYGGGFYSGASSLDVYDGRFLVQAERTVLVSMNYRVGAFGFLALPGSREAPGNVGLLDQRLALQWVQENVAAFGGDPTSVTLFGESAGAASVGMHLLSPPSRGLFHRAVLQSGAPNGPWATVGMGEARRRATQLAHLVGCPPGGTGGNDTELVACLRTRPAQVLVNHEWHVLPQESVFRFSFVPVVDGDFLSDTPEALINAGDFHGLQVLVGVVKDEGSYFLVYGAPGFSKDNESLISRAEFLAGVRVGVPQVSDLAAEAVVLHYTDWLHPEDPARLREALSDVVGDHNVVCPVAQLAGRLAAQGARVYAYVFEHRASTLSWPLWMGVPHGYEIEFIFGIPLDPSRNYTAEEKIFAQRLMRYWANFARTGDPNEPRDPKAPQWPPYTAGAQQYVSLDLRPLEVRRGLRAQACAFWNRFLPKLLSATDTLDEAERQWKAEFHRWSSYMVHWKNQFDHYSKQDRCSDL
T1 sequence (P22303 32-614): as above
Sequence of BuChE (P06276 29-602): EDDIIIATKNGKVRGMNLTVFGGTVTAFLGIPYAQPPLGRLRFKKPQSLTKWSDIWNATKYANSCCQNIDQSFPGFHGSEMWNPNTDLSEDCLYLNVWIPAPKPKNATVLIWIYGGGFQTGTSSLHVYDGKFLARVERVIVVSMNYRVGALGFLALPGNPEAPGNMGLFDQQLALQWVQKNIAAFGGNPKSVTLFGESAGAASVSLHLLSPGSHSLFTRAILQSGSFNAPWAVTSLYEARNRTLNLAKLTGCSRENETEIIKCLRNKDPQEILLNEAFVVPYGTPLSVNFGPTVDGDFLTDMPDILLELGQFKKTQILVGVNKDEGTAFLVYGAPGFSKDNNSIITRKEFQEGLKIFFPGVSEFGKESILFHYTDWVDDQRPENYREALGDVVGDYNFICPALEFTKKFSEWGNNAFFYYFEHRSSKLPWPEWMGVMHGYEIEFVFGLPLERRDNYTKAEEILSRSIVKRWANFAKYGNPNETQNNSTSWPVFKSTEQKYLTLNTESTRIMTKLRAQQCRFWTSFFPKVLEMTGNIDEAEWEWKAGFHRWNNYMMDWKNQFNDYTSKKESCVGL
Sequence of butylryl cholinesterase (P06276 29-602): as above

SMILES | AChEI (%) 1 μM (AChE) [%] | AChEI (%) 10 μM (AChE) [%] | BuChEI (%) 10 μM (BuChE) [%] | IC50 [2] [µM] | inhibition at 10 µM [2] [%] | inhibition at 10 µM (butylryl cholinesterase) [%] | Induction of hypothermia MED (mg/kg s.c.) [3] | fall in body temperature [3] | further results
C[C@H](Cc1ccccc1)NC(=O)Oc1cccc([C@H](C)N(C)C)c1 [Compound 9, S-riva-l-amphetamine] | 35 | 79 | 90 | 3.1 | 79 | 90 | 10 mg/kg s.c. | dose-related-related fall in body temperature | duration of wakefulness (male Wistar rats): dose-related increase in wakefulness; ChE inhibition ([1]; 8 mg/kg i.p.): 41%; Relative ChE Activity ([1]; 8 mg/kg i.p.): 59%; BuChEI (%) 1 μM (BuChE; 1 μM): 27%
C[C@H](Cc1ccccc1)N(C)C(=O)Oc1cccc([C@H](C)N(C)C)c1 [Compound 7, S-riva-l-methamphetamine] | 32 | 79 | 17 | 3.2 | 79 | 17 | ≦1 mg/kg s.c. | dose-related-related fall in body temperature | rebound hypersomnolence (male Wistar rats; listed as Compound B): rebound hypersomnolence was not observed; rebound hypersomnolence (male Wistar rats; listed as compound B): lack of hypersomnolence; effect on body temperature (male Wistar rats; listed as Compound B): did not cause an increase in body temperature (hyperthermia), but rather caused an opposite reduction in body temperature; effect on body temperature (male Wistar rats; listed as compound B): absence of hypothermia; locomotor hyperactivity / stimulant activity (male Wistar rats; listed as Compound B): did not cause locomotor hyperactivity; locomotor hyperactivity / stimulant activity (male Wistar rats; listed as compound B): lack of locomotor stimulant activity; duration of wakefulness (male Wistar rats; listed as B): dose-related increase in wakefulness; duration of wakefulness (male Wistar rats; listed as Compound B): unexpectedly long increase in wakefulness that surpassed that seen with the reference compounds tested; stimulus generalization (selection of methamphetamine lever) [4]: did not select the methamphetamine lever; ChE inhibition ([1]; 2 mg/kg i.p.): 38%; Relative ChE Activity ([1]; 2 mg/kg i.p.): 62%
